Experimental data taken from patent publication US20230312556A1, “ARYLAMIDE COMPOUND, PHARMACEUTICAL COMPOSITION COMPRISING SAME, AND PREPARATION METHOD THEREFOR AND USE THEREOF” (SICHUAN KELUN-BIOTECH BIOPHARMACEUTICAL CO., LTD., priority 2020, published 2023).

Target: mutant BRAF enzyme (BRAF-V600E) (Homo sapiens (Human), UniProt P15056, V600E)
Assay: RAF inhibition assay (TB-PMAP2K1 kit), BRAF-V600E
Format: biochemical
Conditions: FLUORESCEIN-MAP2K1 substrate, 60 min reaction

mutant BRAF enzyme (BRAF-V600E), sequence (P15056 whole entry V600E): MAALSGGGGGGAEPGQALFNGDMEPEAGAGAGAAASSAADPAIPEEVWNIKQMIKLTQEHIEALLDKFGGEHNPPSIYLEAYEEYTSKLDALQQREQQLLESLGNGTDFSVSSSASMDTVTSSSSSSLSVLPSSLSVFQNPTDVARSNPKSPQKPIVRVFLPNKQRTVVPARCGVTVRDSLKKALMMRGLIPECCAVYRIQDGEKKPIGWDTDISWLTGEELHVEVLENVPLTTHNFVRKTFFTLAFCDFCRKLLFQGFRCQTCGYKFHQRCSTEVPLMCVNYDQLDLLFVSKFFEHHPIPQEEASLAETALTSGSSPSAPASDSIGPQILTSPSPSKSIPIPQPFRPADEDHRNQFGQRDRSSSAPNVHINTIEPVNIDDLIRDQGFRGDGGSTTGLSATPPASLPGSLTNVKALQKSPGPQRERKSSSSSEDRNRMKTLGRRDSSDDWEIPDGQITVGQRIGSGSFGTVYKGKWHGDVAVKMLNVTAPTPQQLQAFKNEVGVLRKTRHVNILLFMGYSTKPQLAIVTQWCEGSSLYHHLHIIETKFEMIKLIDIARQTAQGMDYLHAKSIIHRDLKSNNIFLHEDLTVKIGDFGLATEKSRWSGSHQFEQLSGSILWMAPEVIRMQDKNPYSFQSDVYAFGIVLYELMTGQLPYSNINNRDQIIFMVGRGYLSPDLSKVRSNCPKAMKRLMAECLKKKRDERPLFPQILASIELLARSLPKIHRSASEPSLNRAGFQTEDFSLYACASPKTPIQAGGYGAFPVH

| SMILES | IC50 [nM] |
| --- | --- |
| Cc1ccc2c(Nc3cccc(Cl)c3F)nccc2c1NC(=O)c1cccc2c(N)nccc12 [Comparative Example 1, 1-amino-N-(1-((3-chloro-2-fluorophenyl)amino)-6-methylisoquinolin-5-yl)isoquinoline-5-carboxamide, reference compound] | > 1000 |
| Cc1ccc2c(Nc3cccc(C(F)(F)F)c3)nccc2c1NC(=O)c1cccc2c(N)nccc12 [Comparative Example 2, 1-amino-N-(6-methyl-1-((3-(trifluoromethyl)phenyl)amino)isoquinolin-5-yl)isoquinoline-5-carboxamide, reference compound] | > 1000 |
| Cc1ccc2c(Cc3ccccc3F)nccc2c1NC(=O)c1csc2c(N)ncnc12 [Compound 2, 4-amino-N-(1-(2-fluorobenzyl)-6-methylisoquinolin-5-yl)thieno[3,2-d]pyrimidine-7-carboxamide] | 35.6 ± 2.4 |
| COc1ccc(Cc2nccc3c(NC(=O)c4csc5c(N)ncnc45)c(C)ccc23)cc1 [Compound 5, 4-amino-N-(1-(4-methoxybenzyl)-6-methylisoquinolin-5-yl)thieno[3,2-d]pyrimidine-7-carboxamide] | 8.9 ± 1.03 |
| COc1ccc(C(O)c2nccc3c(NC(=O)c4csc5c(N)ncnc45)c(C)ccc23)cc1 (centres unmarked) [Compound 6, 4-amino-N-(1-(hydroxy(4-methoxyphenyl)methyl)-6-methylisoquinolin-5-yl)thieno[3,2-d]pyrimidine-7-carboxamide] | 25.2 ± 4.08 |
| Cc1ccc2c(Cc3cccc(Cl)c3F)nccc2c1NC(=O)c1csc2c(N)ncnc12 [Compound 8, 4-amino-N-(1-(3-chloro-2-fluorobenzyl)-6-methylisoquinolin-5-yl)thieno[3,2-d]pyrimidine-7-carboxamide] | 8.63 ± 0.99 |
| Cc1ccc2c(Cc3ccccc3Cl)nccc2c1NC(=O)c1csc2c(N)ncnc12 [Compound 10, 4-amino-N-(1-(2-chlorobenzyl)-6-methylisoquinolin-5-yl)thieno[3,2-d]pyrimidine-7-carboxamide] | 4.73 ± 1.82 |
| Cc1ccc2c(C(=O)c3ccccc3Cl)nccc2c1NC(=O)c1csc2c(N)ncnc12 [Compound 11, 4-amino-N-(1-(2-chlorobenzoyl)-6-methylisoquinolin-5-yl)thieno[3,2-d]pyrimidine-7-carboxamide] | 33.1 ± 7.2 |
| Cc1ccc2c(Nc3cccc(Cl)c3)nccc2c1NC(=O)c1cnc2c(N)ncnn12 [Compound 12, 4-amino-N-(1-((3-chlorophenyl)amino)-6-methylisoquinolin-5-yl)imidazo[2,1-f][1,2,4]triazine-7-carboxamide] | 1.5 ± 0.2 |
| Cc1ccc2c(Cc3ccc(F)cc3)nccc2c1NC(=O)c1csc2c(N)ncnc12 [Compound 13, 4-amino-N-(1-(4-fluorobenzyl)-6-methylisoquinolin-5-yl)thieno[3,2-d]pyrimidine-7-carboxamide] | 32.8 ± 0.6 |
| Cc1ccc2c(C(O)c3ccccc3Cl)nccc2c1NC(=O)c1csc2c(N)ncnc12 (centres unmarked) [Compound 14, 4-amino-N-(1-((2-chlorophenyl)(hydroxy)methyl)-6-methylisoquinolin-5-yl)thieno[3,2-d]pyrimidine-7-carboxamide] | 6.3 ± 0.7 |
| Cc1ccc2c(C(O)c3ccc(F)cc3)nccc2c1NC(=O)c1csc2c(N)ncnc12 (centres unmarked) [Compound 15, 4-amino-N-(1-((4-fluorophenyl)(hydroxy)methyl)-6-methylisoquinolin-5-yl)thieno[3,2-d]pyrimidine-7-carboxamide] | 11.1 ± 1.5 |
| Cc1ccc2c(Cc3cccc(Cl)c3)nccc2c1NC(=O)c1csc2c(N)ncnc12 [Compound 16, 4-amino-N-(1-(3-chlorobenzyl)-6-methylisoquinolin-5-yl)thieno[3,2-d]pyrimidine-7-carboxamide] | 6.27 ± 1.15 |
| Cc1ccc2c(C(O)c3cccc(Cl)c3)nccc2c1NC(=O)c1csc2c(N)ncnc12 (centres unmarked) [Compound 17, 4-amino-N-(1-((3-chlorophenyl)(hydroxy)methyl)-6-methylisoquinolin-5-yl)thieno[3,2-d]pyrimidine-7-carboxamide] | 5.73 ± 1.05 |
| Cc1ccc2c(Cc3ccc(Cl)cc3)nccc2c1NC(=O)c1csc2c(N)ncnc12 [Compound 18, 4-amino-N-(1-(4-chlorobenzyl)-6-methylisoquinolin-5-yl)thieno[3,2-d]pyrimidine-7-carboxamide] | 8.33 ± 1.25 |
| Cc1ccc2c(C(O)c3ccc(Cl)cc3)nccc2c1NC(=O)c1csc2c(N)ncnc12 (centres unmarked) [Compound 20, 4-amino-N-(1-((4-chlorophenyl)(hydroxy)methyl)-6-methylisoquinolin-5-yl)thieno[3,2-d]pyrimidine-7-carboxamide] | 10.7 ± 1.93 |
| Cc1ccc2c(C(=O)c3ccc(Cl)cc3)nccc2c1NC(=O)c1csc2c(N)ncnc12 [Compound 21, 4-amino-N-(1-(4-chlorobenzoyl)-6-methylisoquinolin-5-yl)thieno[3,2-d]pyrimidine-7-carboxamide] | 5.99 ± 1.82 |
| Cc1ccc2c(C(O)c3ccccc3Cl)nccc2c1NC(=O)c1cccc2c(N)ncnc12 (centres unmarked) [Compound 24, 4-amino-N-(1-((2-chlorophenyl)(hydroxy)methyl)-6-methylisoquinolin-5-yl)quinazoline-8-carboxamide] | 7.1 ± 0.7 |

| SMILES | IC50 [nM] |
| --- | --- |
| Cc1ccc2c(Cc3ccccc3Cl)nccc2c1NC(=O)c1cccc2c(N)ncnc12 [Compound 25, 4-amino-N-(1-(2-chlorobenzyl)-6-methylisoquinolin-5-yl)quinazoline-8-carboxamide] | 6.31 ± 0.99 |
| Cc1ccc2c(Cc3ccc(Cl)cc3F)nccc2c1NC(=O)c1csc2c(N)ncnc12 [Compound 26, 4-amino-N-(1-(4-chloro-2-fluorobenzyl)-6-methylisoquinolin-5-yl)thieno[3,2-d]pyrimidine-7-carboxamide] | 9 ± 0.77 |
| Cc1ccc2c(C(=O)c3ccc(Cl)cc3F)nccc2c1NC(=O)c1csc2c(N)ncnc12 [Compound 27, 4-amino-N-(1-(4-chloro-2-fluorobenzoyl)-6-methylisoquinolin-5-yl)thieno[3,2-d]pyrimidine-7-carboxamide] | 6.48 ± 0.93 |
| Cc1ccc2c(Nc3cccc(Cl)c3F)nccc2c1NC(=O)c1cnc2c(N)ncnn12 [Compound 30, 4-amino-N-(1-((3-chloro-2-fluorophenyl)amino)-6-methylisoquinolin-5-yl)imidazo[2,1-f][1,2,4]triazine-7-carboxamide] | 4.1 ± 0.2 |
| Cc1ccc2c(C(O)c3ccc(C(F)(F)F)cc3)nccc2c1NC(=O)c1csc2c(N)ncnc12 (centres unmarked) [Compound 33, 4-amino-N-(1-(hydroxy(4-(trifluoromethyl)phenyl)methyl)-6-methylisoquinolin-5-yl)thieno[3,2-d]pyrimidine-7-carboxamide] | 33.5 ± 6.13 |
| Cc1ccc2c(Cc3ccc(C(F)(F)F)cc3)nccc2c1NC(=O)c1csc2c(N)ncnc12 [Compound 34, 4-amino-N-(6-methyl-1-(4-(trifluoromethyl)benzyl)isoquinolin-5-yl)thieno[3,2-d]pyrimidine-7-carboxamide] | 26.9 ± 2.58 |
| Cc1ccc2c(Cc3ccc(N(C)C)nc3)nccc2c1NC(=O)c1csc2c(N)ncnc12 [Compound 36, 4-amino-N-(1-((6-(dimethylamino)pyridin-3-yl)methyl)-6-methylisoquinolin-5-yl)thieno[3,2-d]pyrimidine-7-carboxamide] | 22.5 ± 4.41 |
| Cc1ccc2c(C(O)c3ccc(N(C)C)nc3)nccc2c1NC(=O)c1csc2c(N)ncnc12 (centres unmarked) [Compound 37, 4-amino-N-(1-((6-(dimethylamino)pyridin-3-yl)(hydroxy)methyl)-6-methylisoquinolin-5-yl)thieno[3,2-d]pyrimidine-7-carboxamide] | 20.4 ± 3.03 |
| Cc1ccc2c(Nc3ccc(CN(C)C)cc3)nccc2c1NC(=O)c1cccc2c(N)ncnc12 [Compound 40, 4-amino-N-(1-((4-((dimethylamino)methyl)phenyl)amino)-6-methylisoquinolin-5-yl)quinazoline-8-carboxamide] | 8.51 ± 1.02 |
| Cc1ccc2c(Cc3ccc(Cl)c(CN(C)C)c3)nccc2c1NC(=O)c1csc2c(N)ncnc12 [Compound 42, 4-amino-N-(1-(4-chloro-3-((dimethylamino)methyl)benzyl)-6-methylisoquinolin-5-yl)thieno[3,2-d]pyrimidine-7-carboxamide] | 35.8 ± 9.02 |
| Cc1ccc2c(Nc3ccccc3F)nccc2c1NC(=O)c1cnc2c(N)ncnn12 [Compound 44, 4-amino-N-(1-((2-fluorophenyl)amino)-6-methylisoquinolin-5-yl)imidazo[2,1-f][1,2,4]triazine-7-carboxamide] | 0.88 ± 0.15 |
| Cc1cc(C(=O)Nc2c(C)ccc3c(Nc4cccc(Cl)c4F)nccc23)c2ncnc(N)c2c1 [Compound 45, 4-amino-N-(1-((3-chloro-2-fluorophenyl)amino)-6-methylisoquinolin-5-yl)-6-methylquinazoline-8-carboxamide] | 18.2 ± 7.52 |
| Cc1ccc2c(Nc3cccc(Cl)c3F)nccc2c1NC(=O)c1cc(N2CCOCC2)cc2c(N)ncnc12 [Compound 53, 4-amino-N-(1-((3-chloro-2-fluorophenyl)amino)-6-methylisoquinolin-5-yl)-6-morpholinoquinazoline-8-carboxamide] | 17.3 ± 3.43 |
| Cc1ccc2c(Nc3cccc(Cl)c3F)nccc2c1NC(=O)c1cc(N2CCN(C)CC2)cc2c(N)ncnc12 [Compound 54, 4-amino-N-(1-((3-chloro-2-fluorophenyl)amino)-6-methylisoquinolin-5-yl)-6-(4-methylpiperazin-1-yl)quinazoline-8-carboxamide] | 11 ± 2.02 |
| Cc1ccc2c(Nc3ccc(Cl)cc3F)nccc2c1NC(=O)c1cnc2c(N)ncnn12 [Compound 55, 4-amino-N-(1-((4-chloro-2-fluorophenyl)amino)-6-methylisoquinolin-5-yl)imidazo[2,1-f][1,2,4]triazine-7-carboxamide] | 2.86 ± 0.24 |
| COc1ccc(Nc2nccc3c(NC(=O)c4cnc5c(N)ncnn45)c(C)ccc23)cc1Cl [Compound 56, 4-amino-N-(1-((3-chloro-4-methoxyphenyl)amino)-6-methylisoquinolin-5-yl)imidazo[2,1-f][1,2,4]triazine-7-carboxamide] | 3.16 ± 0.67 |
| COc1ccc(Nc2nccc3c(NC(=O)c4cccc5c(N)ncnc45)c(C)ccc23)cc1 [Compound 57, 4-amino-N-(1-((4-methoxyphenyl)amino)-6-methylisoquinolin-5-yl)quinazoline-8-carboxamide] | 2.89 ± 0.34 |
